Measured values taken from paper PMC6751730 (ACS Omega, 2019).

Legend:
HepG2 cancer cells = assay: MTT antiproliferative assay, HepG2; format: cell-based; details: 24 h drug exposure
HeLa cancer cells = assay: MTT antiproliferative assay, HeLa; format: cell-based, human; details: 24 h drug exposure
BEAS-2B normal cells = assay: MTT antiproliferative assay, normal cells BEAS-2B; format: cell-based; details: 24 h drug exposure
A549 cancer cells = assay: MTT antiproliferative assay, A549; format: cell-based, human; details: 24 h drug exposure
lysosomes in A549 cells = details: cited from earlier work

Structure (SMILES): N.N.[Cl][Pt][Cl] [cisplatin]
- IC50 (HepG2 cancer cells): 22.7 ± 1.1 µM
- IC50 (HeLa cancer cells): 7.5 ± 0.2 µM
- IC50 (BEAS-2B normal cells): 42 ± 2.3 µM
- IC50 (A549 cancer cells): 21.3 ± 1.7 µM

Structure (SMILES): CCNc1cc2c(cc1C)C1(c3cc(C)c(NCC)cc3O2)c2ccccc2C(=O)N1N [rhodamine 6G hydrazide]
- Colocalization coefficient with lysosome (lysosomes in A549 cells): 0.58

Structure (SMILES): CCN(CC)c1ccc2c(c1)Oc1cc(N(CC)CC)ccc1C21c2ccccc2C(=O)N1N [rhodamine B hydrazide]
- Colocalization coefficient with lysosome (lysosomes in A549 cells): 0.62
